The target of the assay is T1, human HSL (Homo sapiens, UniProt Q05469).
T1 construct: generate a full length human HSL ORF with a 3′-His6 tag; made in house; host or cells: High 5 insect cells (baculovirus, pFast-BAC)
T1 sequence (Q05469 1-1076): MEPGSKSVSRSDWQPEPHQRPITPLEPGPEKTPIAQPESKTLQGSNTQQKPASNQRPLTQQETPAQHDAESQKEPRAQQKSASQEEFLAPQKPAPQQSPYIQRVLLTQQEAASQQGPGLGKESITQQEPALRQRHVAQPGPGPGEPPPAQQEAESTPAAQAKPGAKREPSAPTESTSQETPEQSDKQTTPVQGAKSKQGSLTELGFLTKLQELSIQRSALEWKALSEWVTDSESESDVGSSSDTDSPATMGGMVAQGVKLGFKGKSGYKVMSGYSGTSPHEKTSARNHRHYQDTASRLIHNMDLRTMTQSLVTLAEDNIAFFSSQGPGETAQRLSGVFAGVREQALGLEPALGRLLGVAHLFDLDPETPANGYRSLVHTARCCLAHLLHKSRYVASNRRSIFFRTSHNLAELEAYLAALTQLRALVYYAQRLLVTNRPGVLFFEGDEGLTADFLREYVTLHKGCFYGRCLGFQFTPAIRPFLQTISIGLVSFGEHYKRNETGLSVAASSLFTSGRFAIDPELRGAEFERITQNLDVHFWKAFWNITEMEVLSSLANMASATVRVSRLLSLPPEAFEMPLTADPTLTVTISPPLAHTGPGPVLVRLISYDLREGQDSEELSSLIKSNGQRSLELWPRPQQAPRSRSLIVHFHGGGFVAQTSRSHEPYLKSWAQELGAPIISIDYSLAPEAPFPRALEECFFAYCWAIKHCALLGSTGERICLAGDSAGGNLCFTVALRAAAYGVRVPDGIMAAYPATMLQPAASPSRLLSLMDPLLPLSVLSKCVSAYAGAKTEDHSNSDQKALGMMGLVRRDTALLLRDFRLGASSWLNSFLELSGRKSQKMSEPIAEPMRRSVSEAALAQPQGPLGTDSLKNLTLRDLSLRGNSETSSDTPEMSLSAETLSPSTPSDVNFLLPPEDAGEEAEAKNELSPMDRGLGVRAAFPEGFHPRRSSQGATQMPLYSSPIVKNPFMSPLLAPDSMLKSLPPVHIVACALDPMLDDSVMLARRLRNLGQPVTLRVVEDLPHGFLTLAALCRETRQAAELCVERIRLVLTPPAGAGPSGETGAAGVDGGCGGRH
Kind of assay: Human Hormone-Sensitive Lipase (HSL) enzyme inhibition assay (colorimetric, DMPT substrate). It is filed as biochemical. As to conditions: human full length HSL-His6, 2,3-dimercapto-1-propanol tributyrate substrate, 37° C. 20 minutes, absorbance at 405 nm; read-out: HSL hum IC50. An outline of the steps:
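Full-length human HSL with C-terminal His6, expressed in baculovirus-infected High 5 cells and Ni-NTA purified, was added (15 ug/ml stock) to 1.5 mM DMPT in 100 mM MOPS pH 7.2, 0.2 mg/ml fatty acid-free BSA containing compound. After 20 min at 37 °C, DTNB with SDS/Triton X-100 was added; A405 read after 15 min at RT.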

For the compound `O=C1CCCCN1C[C@]1(O)CC[C@]2(CCN(c3ccc(OCC(F)(F)F)cc3)C2=O)CC1` [Example 368, (5α,8α)-8-Hydroxy-8-(2-oxo-piperidin-1-ylmethyl)-2-[4-(2,2,2-trifluoro-ethoxy)-phenyl]-2-aza-spiro[4.5]decan-1-one], the IC50 (usually the concentration that gives 50% inhibition) stood at 0.08 µM.
Then `O=c1ccccn1C[C@]1(O)CC[C@]2(CCN(c3ccc(OCC(F)(F)F)cc3)C2=O)CC1` [Example 369, (5α,8α)-8-Hydroxy-8-(2-oxo-2H-pyridin-1-ylmethyl)-2-[4-(2,2,2-trifluoro-ethoxy)-phenyl]-2-aza-spiro[4.5]decan-1-one], with 0.02 µM; and `O=c1ccccn1C[C@]1(O)CC[C@@]2(CCN(c3ccc(OCC(F)(F)F)cc3)C2=O)CC1` [Example 370, (5α,8β)-8-Hydroxy-8-(2-oxo-2H-pyridin-1-ylmethyl)-2-[4-(2,2,2-trifluoro-ethoxy)-phenyl]-2-aza-spiro[4.5]decan-1-one], with 0.08 µM.
Regarding `O=C1N(c2ccc(OCC(F)(F)F)cc2)CC[C@]12CC[C@@](O)(COc1ccccn1)CC2` [Example 371, (5α,8α)-8-Hydroxy-8-(pyridin-2-yloxymethyl)-2-[4-(2,2,2-trifluoro-ethoxy)-phenyl]-2-aza-spiro[4.5]decan-1-one], the half-maximal inhibitory concentration (IC50) stood at 0.02 µM.
The figure for `CO[C@H](c1ccc(N2CC[C@]3(CC[C@@](O)(COCC(F)(F)F)CC3)C2=O)cc1)C(F)(F)F` [Example 372, (5α,8α)-8-Hydroxy-8-(2,2,2-trifluoro-ethoxymethyl)-2-[4-((R)-2,2,2-trifluoro-1-methoxy-ethyl)-phenyl]-2-aza-spiro[4.5]decan-1-one] is 0.017 µM.
Regarding `CCc1ccc(CCN2CC[C@]3(CC[C@@](O)(COC)CC3)C2=O)cc1` [Example 373, (5α,8α)-2-[2-(4-Ethyl-phenyl)-ethyl]-8-hydroxy-8-methoxymethyl-2-aza-spiro[4.5]decan-1-one], the IC50 came out at 0.07 µM.
With `CC(C)Oc1ccc(N2CC[C@]3(CC[C@@](O)(c4cnn[nH]4)CC3)C2=O)cc1` [Example 374, (5α,8α)-8-hydroxy-2-(4-isopropoxyphenyl)-8-(1H-1,2,3-triazol-4-yl)-2-azaspiro[4.5]decan-1-one], the concentration for half-maximal inhibition (IC50) was found to be 0.4 µM.
Then `CCc1ccc(CCN2CC[C@]3(CC[C@@](O)(COC(C)C)CC3)C2=O)cc1` [Example 375, (5α,8α)-2-[2-(4-Ethyl-phenyl)-ethyl]-8-hydroxy-8-isopropoxymethyl-2-aza-spiro[4.5]decan-1-one], with 0.0142 µM.

The record behind these values is US8440710B2, “HSL inhibitors useful in the treatment of diabetes” (Hoffmann-La Roche Inc., priority 2009, dated 2013).
